Test results: patent US12194294B2, “Oral drug delivery devices and methods using iontophoresis” (The Regents of the University of California, priority 2019, dated 2025)
Entries after “also recorded” stand apart in the source; their conditions may differ. Where two headings read alike, the source gives them in different places.

What was measured:
Caco-2 cells [1] = experiment: TEER measurement of tight junction integrity in Caco-2 monolayers during FITC-insulin transport study; format: cell-based, human; details: for TEER decrease: within 15 min
Procedure: Transport experiments were carried out in triplicates and at least 3 transwells were used per trial for each group. Before the start of the experiment, the existing medium in the transwell was replaced with phenol red, FBS and P/S free DMEM in both the apical (200 μl) and basolateral side (600 μl) and the cells were incubated for 30 min. […] This was performed at 0.25, 0.5, 1, 2, 3 and 5 h. A 50 μA electric current was applied to the cells during the first hour of the study for a period of 10 min, followed by a 10 min recovery period and this was repeated another two times. At the end of 1 h (total 30 min iontophoresis), the transwell plates were kept inside an incubator at 37° C., 5% CO2 and only taken out to remove 100 μl aliquots from the basolateral side followed by replacement with same volume fresh medium at the aforementioned time periods. […] TEER was measured at every time point when aliquots were withdrawn from the transwells.

non-diabetic rats = experiment: In vivo intestinal iontophoresis using insulin mucoadhesive patches: blood glucose; parameters: species or system rat
Procedure: Insulin mucoadhesive patches were prepared as described in Banerjee, et al., “Intestinal Mucoadhesive Devices for Oral Delivery of Insulin,” Bioeng. Transl. Med. 1, 338-346 (2016). […] About 110 mg of the mixture was pressed at 3-ton pressure using a hydraulic press into a patch. The patches were then cut into 5×3 mm (length×breadth) sized rectangular smaller patches. One side of the patch was completely covered with aluminum foil using minimal amount of super glue placed at one corner of the foil. Wires with a small section of their protective insulation removed were then stuck on the aluminum foil using super glue. Care was taken not to cover the entire wire placed over the foil with super glue. The exposed wire sticking on to the patches were then taped with an electrical insulating tape to prevent any loss of current in vivo through exposed wire.
Intestinal iontophoresis was carried out using a 6 V battery connected to the intestine. A potentiometer and an ammeter were used in the electrical circuit to accurately control and measure the electric current. Given that the identified safe threshold for iontophoresis is 0.5 mA/cm^2, the electrical parameters were selected in order to perform the studies using a safe current density of 0.33 mA/cm^2 (Singh, et. al., “Transdermal drug delivery by passive diffusion and iontophoresis: a review,” Med Res Rev., 13(5):569-621 (1993)). For the experiment, the rats were fasted overnight but given free access to water. Prior to the start of intestinal iontophoresis, the rats were anesthetized, a portion of abdomen prepped for surgery and an incision was made in the area to expose the intestine. Experiments were conducted using sterile instruments and following good surgical practices. […] Thereafter current (45-50 μA) was allowed to flow for 1.5 minutes followed by 3.5 minutes of recovery time for 1 h, amounting to a total 18 min of iontophoresis. After 1 h, the patches were left in place but the wires were disconnected from the battery and cut close to the inserted patches. The intestinal incisions with the patches left in place were stitched, the intestine put back into the abdomen and the muscle and skin sutured. Blood glucose was determined at the start of the study and at every 0.5 h till the end of study at 3 h. The rats were kept anesthetized until the end of experiment. Afterwards, the animals were euthanized and the intestinal sections in and around the patches were dissected for further histological examination to determine morphological changes, if any, due to iontophoresis.
Control experiments with no electric current were conducted similarly.
About 110 mg of the mixture was pressed at 3-ton pressure using a hydraulic press into a patch. The patches were then cut into 5×3 mm (length×breadth) sized rectangular smaller patches. One side of the patch was completely covered with aluminum foil using minimal amount of super glue placed at one corner of the foil. Wires with a small section of their protective insulation removed were then stuck on the aluminum foil using super glue. Care was taken not to cover the entire wire placed over the foil with super glue. The exposed wire sticking on to the patches were then taped with an electrical insulating tape to prevent any loss of current in vivo through exposed wire.
The circuit for in vivo experiments was set up as illustrated in FIG. 3. Intestinal iontophoresis was carried out using a 6 V battery connected to the intestine. A potentiometer and an ammeter were used in the electrical circuit to accurately control and measure the electric current. Given that the identified safe threshold for iontophoresis is 0.5 mA/cm2, the electrical parameters were selected in order to perform the studies using a safe current density of 0.33 mA/cm2 [8]. For the experiment, the rats were fasted overnight but given free access to water. […]

Caco-2 monolayers = details: for FITC-insulin transported across the cells: end of 5 h; for Papp of FITC-insulin across the cells: in 5 h
Procedure: (§1) Caco-2 human intestinal epithelial cells (passages #5-10) were cultured in DMEM containing 10% v/v FBS and 1% v/v P/S and seeded in 24 well plate transwells at a density of 2×10^5 cells/ml. 200 μl DMEM with cells was placed in apical side while 600 μl cell free DMEM was placed in the basolateral side. The cells were allowed to grow for a period of 18-21 days and medium replaced with fresh DMEM every other day.
(§2) To maintain sterile conditions, all in vitro experiments including circuit set up were done under aseptic conditions in a biosafety cabinet. A 6 V battery was used to supply electrical current to transwells containing Caco-2 monolayer. The higher potential of the battery was connected to the basolateral side of the transwell while the lower potential of the battery connected to the apical side while taking care not to touch the transwell membranes with Caco-2 cell monolayer. The current applied to the cell was monitored by an ammeter and its value was adjusted to 50 μA using a potentiometer. Three different branches, each attached to an ammeter, potentiometer and transwell were connected in parallel across the battery to enable three different measurements at a time.
Transport experiments were carried out in triplicates and at least 3 transwells were used per trial for each group. Before the start of the experiment, the existing medium in the transwell was replaced with phenol red, FBS and P/S free DMEM in both the apical (200 μl) and basolateral side (600 μl) and the cells were incubated for 30 minutes. […] This was performed at 0.25, 0.5, 1, 2, 3 and 5 h. A 50 μA electrical current was applied to the cells during the first hour of the study for a period of 10 min, followed by 10 min recovery period and this was repeated another two times. At the end of 1 h (total 30 minutes iontophoresis), the transwell plates were kept inside an incubator at 37° C., 5% CO2 and only taken out to remove 100 μl aliquots from the basolateral side followed by replacement with same volume fresh medium at the aforementioned time periods. […] TEER was measured at every time point when aliquots were withdrawn from the transwells. Apparent permeability coefficient (Papp) was calculated using the equation (Brown, et al., “Dermal and transdermal drug delivery systems: current and future prospects,” Drug Deliv. 13(3):175-87 (2006)):
The transport enhancement ratio (ER) was calculated using the equation (Brown, et al., 2006): […]
as §1
as §2, with “the battery was connected to” for “the battery connected to”, “a potentiometer. […]” for “a potentiometer. Three different branches, each attached to an ammeter, potentiometer and transwell were connected in parallel across the battery to enable three different measurements at a time.”

Caco-2 cells [2] = experiment: Confocal microscopy of FITC-insulin uptake by Caco-2 cells; format: cell-based, human; details: cells exposed to electric current compared to control wells
Procedure: On the next day, the transwells were washed with HBSS and the membrane cut out and placed in glass slides. Mounting media with DAPI was added to the membranes and covered with glass slides. Confocal imaging was performed using Olympus Fluoview 1000 Spectral Confocal instrument at 60× magnification.
On the next day, the transwells were washed with HBSS and the membrane cut out and placed in glass slides. Mounting media with DAPI was added to the membranes and covered with glass slides. Confocal imaging was performed using Olympus Fluoview 1000™ Spectral Confocal instrument at 60× magnification.

[3] = control (no current) wells, 2 h
[4] = control (no current) wells, 3 h
[5] = 1 U/kg, subcutaneously injected, 1.5 h
[6] = 1 U/kg, subcutaneously injected, 3 h

Human Insulin
difference in TEER between control and electric current group (Caco-2 cells [1]; at the end at 5 hours): no significant difference
TEER drop of initial levels (Caco-2 cells [1]; electric current, 2 h): 35%
drop in blood glucose levels (non-diabetic rats; 50 U/kg patch in intestine, 45-50 μA current, 3 h): 63%
hypoglycemia (non-diabetic rats; patches with iontophoresis, rats, up to 3 h): severely hypoglycemic

fluorescein isothiocyanate (FITC)-insulin [FITC-insulin]
FITC-insulin transported across the cells (Caco-2 monolayers; control group (no current)): about 5.5 μg
FITC-insulin transported across the cells (Caco-2 monolayers; electric current applied (50 μA)): approximately 14.1 μg
insulin transport across the cells, electric current vs control (Caco-2 monolayers; from 2 hours onwards): significantly higher
Papp of FITC-insulin across the cells (Caco-2 monolayers; without electricity): 0.99 ×10⁻⁶ cm/s
Papp of FITC-insulin across the cells (Caco-2 monolayers; without electricity (Example 3)): 0.99 ×10⁻⁶ cm/s
TEER reduction of initial levels (Caco-2 cells [1]; [3]): around 9%
TEER, % of initial levels (Caco-2 cells [1]; [3]): 91.2±1.1%
TEER reduction of initial levels (Caco-2 cells [1]; [4]): ~4%
TEER, % of initial levels (Caco-2 cells [1]; [4]): 95.6±6.5%
TEER decrease (Caco-2 cells [1]; control group): no specific decrease
TEER drop of initial levels (Caco-2 cells [1]; electric current, 2 h): 35%
TEER, % of initial levels (Caco-2 cells [1]; electric current, 2 h): 65.7±3.8%
TEER decrease (Caco-2 cells [1]; electric current): 10%
uptake of FITC-insulin by cells (confocal images) (Caco-2 cells [2]): presence of higher FITC-insulin; also recorded: higher uptake
uptake of FITC-insulin by cells (confocal images) (Caco-2 cells [2]; listed as FITCmsulin): higher uptake

insulin solution: insulin solution injected intra-intestinally (50 U/kg) or subcutaneously (1 U/kg) as comparison
blood glucose, % of initial levels (non-diabetic rats; [5]): 57.9±4.1%
maximum drop in blood glucose levels (non-diabetic rats; [5]): 42%
blood glucose drop after recovery (non-diabetic rats; [6]): about 17%
blood glucose, % of initial levels (non-diabetic rats; [6]): 83.3±2.6%
drop in blood glucose levels with time (non-diabetic rats; 50 U/kg, intra-intestinally injected): did not show any drop
